Read-outs that look alike come from different tables or passages of the source.
Tests used:
[1] = Inhibition of HCMV replication, plaque reduction assay (PRA, Hs-68 cells); assay type: cell-based, Human Cytomegalovirus (HCMV); conditions: human, read-out: Cytotoxic at this concentration (footnote *, PRA CMV)
Procedure, shortened: (§1)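 Hs-68 monolayers (80–90% confluent) were infected with ~50 PFU HCMV AD169 for 2 h at 37°, then given compound in DMEM/5% inactivated FBS, refreshed after 4 days and kept 4 more days. Plaques were counted after formaldehyde fixation and crystal violet staining. EC50 derives from percent plaque reduction versus untreated wells.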

HCMV (strain AD169) [2] = test: as above; assay type: cell-based, Human Cytomegalovirus (HCMV); conditions: read-out: PRA CMV EC50
Procedure, shortened: as §1

HSV-1 helicase-primase = biological target: T1, HSV-1 helicase-primase (Human herpesvirus 1, UniProt P10189+P10236); test: HSV-1 DNA-dependent ATPase assay (inhibition of HSV-1 helicase-primase); assay type: biochemical
T1 construct: made in house; host or cells: Sf21 insect cells triply infected with recombinant baculoviruses (UL5, UL8, UL52)
T1 sequence (P10192 whole entry): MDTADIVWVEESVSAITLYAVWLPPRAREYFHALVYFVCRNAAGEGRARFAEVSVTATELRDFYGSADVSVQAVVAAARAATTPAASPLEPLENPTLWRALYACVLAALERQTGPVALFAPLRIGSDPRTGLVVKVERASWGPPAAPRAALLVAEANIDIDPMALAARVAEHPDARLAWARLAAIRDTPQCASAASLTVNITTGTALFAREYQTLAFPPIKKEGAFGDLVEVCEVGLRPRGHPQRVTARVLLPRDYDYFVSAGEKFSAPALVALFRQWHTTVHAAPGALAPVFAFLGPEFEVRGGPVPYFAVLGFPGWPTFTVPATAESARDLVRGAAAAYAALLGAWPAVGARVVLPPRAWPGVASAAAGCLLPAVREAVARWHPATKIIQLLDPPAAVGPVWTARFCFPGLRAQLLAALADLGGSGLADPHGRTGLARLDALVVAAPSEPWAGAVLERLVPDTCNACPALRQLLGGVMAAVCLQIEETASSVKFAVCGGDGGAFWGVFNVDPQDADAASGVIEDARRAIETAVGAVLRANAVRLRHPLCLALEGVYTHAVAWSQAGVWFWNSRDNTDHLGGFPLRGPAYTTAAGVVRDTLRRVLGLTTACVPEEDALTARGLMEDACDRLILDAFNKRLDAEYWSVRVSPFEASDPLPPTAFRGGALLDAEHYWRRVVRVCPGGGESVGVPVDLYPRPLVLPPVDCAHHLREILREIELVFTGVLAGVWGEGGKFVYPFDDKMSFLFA
T1 sequence (P10236 whole entry): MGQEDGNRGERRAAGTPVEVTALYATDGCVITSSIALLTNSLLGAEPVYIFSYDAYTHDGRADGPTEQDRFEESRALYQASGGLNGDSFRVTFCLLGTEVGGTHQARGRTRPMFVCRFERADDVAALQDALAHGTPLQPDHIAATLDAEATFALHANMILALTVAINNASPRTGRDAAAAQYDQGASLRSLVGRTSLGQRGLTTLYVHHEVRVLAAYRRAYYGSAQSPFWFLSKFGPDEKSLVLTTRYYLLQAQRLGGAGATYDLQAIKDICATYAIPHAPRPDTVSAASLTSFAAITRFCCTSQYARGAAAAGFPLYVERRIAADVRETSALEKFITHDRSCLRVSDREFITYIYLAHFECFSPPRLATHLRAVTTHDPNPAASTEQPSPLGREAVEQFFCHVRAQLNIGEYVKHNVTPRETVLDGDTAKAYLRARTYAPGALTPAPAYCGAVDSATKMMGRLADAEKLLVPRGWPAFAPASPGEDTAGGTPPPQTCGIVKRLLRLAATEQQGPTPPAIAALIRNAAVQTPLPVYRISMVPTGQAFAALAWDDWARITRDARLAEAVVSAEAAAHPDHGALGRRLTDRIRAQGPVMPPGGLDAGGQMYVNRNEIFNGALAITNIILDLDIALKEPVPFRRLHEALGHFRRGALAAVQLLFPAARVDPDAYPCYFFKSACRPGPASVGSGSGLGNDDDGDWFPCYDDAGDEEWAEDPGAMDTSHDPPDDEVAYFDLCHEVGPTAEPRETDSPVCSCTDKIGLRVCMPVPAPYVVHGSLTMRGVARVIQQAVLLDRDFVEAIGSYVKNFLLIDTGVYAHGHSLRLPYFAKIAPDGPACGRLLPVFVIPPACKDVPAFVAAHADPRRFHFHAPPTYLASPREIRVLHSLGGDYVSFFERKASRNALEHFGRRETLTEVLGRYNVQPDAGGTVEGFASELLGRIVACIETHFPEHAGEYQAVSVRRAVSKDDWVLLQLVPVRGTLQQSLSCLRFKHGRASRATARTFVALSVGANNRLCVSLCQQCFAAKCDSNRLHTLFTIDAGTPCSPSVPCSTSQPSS
T1 sequence (P10189 whole entry): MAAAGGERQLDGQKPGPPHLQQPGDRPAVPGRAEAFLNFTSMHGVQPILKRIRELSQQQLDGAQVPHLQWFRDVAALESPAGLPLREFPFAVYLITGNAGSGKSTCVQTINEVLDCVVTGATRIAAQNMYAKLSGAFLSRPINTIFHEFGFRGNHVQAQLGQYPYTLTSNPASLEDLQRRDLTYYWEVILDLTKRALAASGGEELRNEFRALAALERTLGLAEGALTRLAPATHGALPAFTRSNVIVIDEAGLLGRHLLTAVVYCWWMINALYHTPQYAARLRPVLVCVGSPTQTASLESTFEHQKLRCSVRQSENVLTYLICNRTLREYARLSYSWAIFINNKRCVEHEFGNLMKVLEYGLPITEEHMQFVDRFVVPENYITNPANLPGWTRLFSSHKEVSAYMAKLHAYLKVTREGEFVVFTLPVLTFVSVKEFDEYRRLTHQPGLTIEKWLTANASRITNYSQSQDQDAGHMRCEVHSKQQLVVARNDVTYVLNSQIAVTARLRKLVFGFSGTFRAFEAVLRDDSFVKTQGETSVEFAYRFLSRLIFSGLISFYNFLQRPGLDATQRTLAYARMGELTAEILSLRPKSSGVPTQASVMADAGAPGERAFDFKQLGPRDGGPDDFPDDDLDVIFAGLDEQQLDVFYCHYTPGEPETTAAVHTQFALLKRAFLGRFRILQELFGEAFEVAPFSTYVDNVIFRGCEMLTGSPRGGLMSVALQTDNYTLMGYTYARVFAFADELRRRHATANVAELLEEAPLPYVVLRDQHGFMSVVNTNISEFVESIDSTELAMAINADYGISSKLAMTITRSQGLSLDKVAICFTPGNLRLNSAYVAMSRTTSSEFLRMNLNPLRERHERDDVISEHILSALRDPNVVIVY
Procedure, shortened: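 ATP hydrolysis was measured as inorganic phosphate (malachite green/molybdate, 650 nm) after 20 min at 34°. Reaction: 3 μg/mL purified Sf21-expressed UL5/UL8/UL52 helicase-primase, 25 μM single-stranded M13 DNA hybridized to 68-mer, 4 mM ATP, pH 7.5 HEPES buffer, 3.3% DMSO. Net absorbance change with and without inhibitor gave DNA-dependent ATPase activity.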

HSV-1 strain F or KOS = test: Inhibition of herpes simplex virus (HSV-1) replication in cell culture (BHK-21 cells, glycoprotein C ELISA); assay type: cell-based
Procedure, shortened: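 Replication readout: ELISA for HSV-1 late glycoprotein C (mAb C11, peroxidase-OPD, 450 nm) on glutaraldehyde-fixed cells. Monolayers (~50,000 cells/well) were infected with strain F or KOS (MOI 0.05 PFU/cell), then incubated 24 h at 37° with compound in 2% FBS α-MEM. EC50 derived from % inhibition.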

HCMV (strain AD169) [3] = test: Inhibition of HCMV replication, ELISA assay (Hs-68 cells); assay type: cell-based, Human Cytomegalovirus (HCMV); conditions: read-out: ELISA CMV EC50
Method: C) Inhibition of Human Cytomegalovirus (HCMV) Replication
The effect of compounds on the replication of HCMV has been measured by using an ELISA-based assay (ELISA) and a plaque reduction assay (PRA).
Hs-68 cells (ATCC # CRL 1635) were seeded in 96 well microtiter plates at 10,000 cells/well in 100 μL of DMEM medium (Gibco Canada Inc.) supplemented with 10% fetal bovine serum (FBS, Gibco Canada Inc.). The plates were incubated for 3 days at 37° to allow the cells to reach 80-90% confluency prior to the assay.
The medium was removed from wells by aspiration. The cells then were infected at a multiplicity of infection (MOI) of 0.01 PFU/cell with 50 μL of HCMV (strain AD169, ATCC VR-538) in DMEM medium supplemented with 5% heat inactivated FBS (assay medium). The virus was allowed to adsorb to cells for 2 h at 37°. Following viral adsorption, the medium was removed from the wells by aspiration. The cells were washed twice with 200 μL of assay medium to remove unabsorbed virus. The cells were then incubated with or without 100 μL of appropriate concentrations of test reagent in assay medium. After 8 days of incubation at 37°, the extent of viral replication was determined by an ELISA assay which detects the late structural protein p28 of HCMV.
Eight days after infection, the medium was aspirated from the wells. Non-specific binding sites were blocked by adding 200 μL of phosphate buffered saline containing 1% (w/v) bovine serum albumin (blocking buffer) to each well and incubating the plates for 30 min at room temperature. After removal of the blocking buffer by aspiration, the cells were fixed with 100 μL of cold ethanol-acetone solution (95:5) per well. The plates were placed at -20° for 30 min. The plates were washed 4 times with phosphate buffered saline containing 0.05% (v/v) polyoxyethylene sorbitan monolaurate (Tween®). Thereafter, 100 μL of mAb UL99 (Advanced Biotechnologies Inc., #13-130-100) recognizing HCMV protein p28 was added to each wells and plates were incubated for 2 h at room temperature. The plates were washed four times with 200 μL of the above-noted phosphate buffered saline/Tween-20® solution. The cells were then incubated with 100 μL of sheep anti-mouse IgGγ horseradish peroxidase conjugated for 2 h at room temperature. The plates were then washed four times with 200 μL of above-noted phosphate buffered saline/Tween-20® solution. Thereafter, 100 μL of ortho phenylenediamine dihydrochloride (OPD, Gibco Canada Inc.) solution was added to each well and the plates were agitated on a microplate shaker for 30 min in the dark. Color development was monitored at 450 nm using a microplate spectrophotometer.
The SAS program was used to calculate the % inhibition of viral replication and to generate EC50 values.
The EC50 values obtained according to this assay method for certain thiazolylphenyl derivatives of this invention are listed in the following tables under the heading ELISA CMV.

[4] = Human betaherpesvirus 5, AD169, Hs68, Group 1 Table 1 entries
[5] = Human betaherpesvirus 5, AD169, Hs68, Group 2 Table 1 entries
[6] = Human alphaherpesvirus 1, BHK-21, Group 1 Table 1 entries
[7] = Human betaherpesvirus 5, AD169, Hs68, Group 1 Table 2 entries
[8] = Human alphaherpesvirus 1, BHK-21, Group 1 Table 2 entries
[9] = Human betaherpesvirus 5, AD169, Hs68, Group 1 Table 5 entries
[10] = Human alphaherpesvirus 1, BHK-21, Group 1 Table 5 entries

## Nc1nc(-c2ccc(NC(=O)CN(Cc3ccccc3)C(=O)Cc3cccnc3)cc2)cs1 [Example 113]
[1]; Group 1 Table 1 entries
  MCC at 192 h: 50 µM
HCMV (strain AD169) [2]; [4]
  EC50: > 50 µM
HSV-1 helicase-primase; Group 1 Table 1 entries
  IC50: 2 µM

## Nc1nc(-c2ccc(NC(=O)NCCc3ccc(F)cc3)cc2)cs1 [Example 24]
[1]; Group 2 Table 1 entries
  MCC at 192 h: 5 µM
HCMV (strain AD169) [2]; [5]
  EC50: > 5 µM
HSV-1 helicase-primase; Group 2 Table 1 entries
  IC50: 30 µM

## Nc1nc(-c2ccc(NC(=O)NCc3ccccc3F)cc2)cs1 [Example 23]
[1]; Group 2 Table 1 entries
  MCC at 192 h: 4 µM
HCMV (strain AD169) [2]; [5]
  EC50: > 4 µM
HSV-1 helicase-primase; Group 2 Table 1 entries
  IC50: 2 µM

## Nc1nc(-c2ccc(NC(=O)CN(CC3CCCCC3)S(=O)(=O)N3CCOCC3)cc2)cs1 [Example 107]
HSV-1 strain F or KOS; [6]
  EC50: 0.83 µM
[1]; Group 1 Table 1 entries
  MCC at 192 h: 12 µM

## Nc1nc(-c2ccc(NC(=O)CCN(C(=O)c3cccnc3)C3CCc4ccccc43)cc2)cs1 (centres unmarked) [Example 11]
HCMV (strain AD169) [3]; [7]
  EC50: 15 µM
HSV-1 strain F or KOS; [8]
  EC50: 4 µM
HCMV (strain AD169) [2]; [7]
  EC50: 20 µM

## C[C@H](NC(=O)Nc1ccc(-c2csc(N)n2)cc1)c1ccccc1 [Example 26]
[1]; Group 2 Table 1 entries
  MCC at 192 h: 74 µM
HCMV (strain AD169) [2]; [5]
  EC50: > 74 µM
HSV-1 helicase-primase; Group 2 Table 1 entries
  IC50: 0.59 µM

## CNc1nc(-c2ccc(NC(=O)CN(CC3CCCCC3)C(=O)c3cccnc3)cc2)cs1 [Example 9]
HCMV (strain AD169) [3]; Human betaherpesvirus 5, AD169, Hs68, Group 1 Table 3 entries
  EC50: 5 µM
HSV-1 strain F or KOS; Human alphaherpesvirus 1, BHK-21, Group 1 Table 3 entries
  EC50: 1.3 µM
HSV-1 helicase-primase; Group 1 Table 3 entries
  IC50: 10 µM

## CC(C)OC(=O)N[C@@H](Cc1ccccc1)C(=O)Nc1ccc(-c2csc(N)n2)cc1 [Example 22]
HCMV (strain AD169) [3]; [9]
  EC50: 18 µM
HSV-1 strain F or KOS; [10]
  EC50: 0.25 µM
HSV-1 helicase-primase; Group 1 Table 5 entries
  IC50: 0.83 µM

## Nc1nc(-c2ccc(NC(=O)CN(Cc3ccccc3)S(=O)(=O)NCc3ccccc3)cc2)cs1 [Example 143]
HCMV (strain AD169) [3]; [4]
  EC50: > 64 µM
HSV-1 strain F or KOS; [6]
  EC50: 1 µM
HSV-1 helicase-primase; Group 1 Table 1 entries
  IC50: 0.8 µM

## Nc1nc(-c2ccc(NC(=O)CNCC3CCCCC3)cc2)cs1 [Example 8]
HCMV (strain AD169) [3]; [4]
  EC50: 3.6 µM
HSV-1 strain F or KOS; [6]
  EC50: 8 µM
HSV-1 helicase-primase; Group 1 Table 1 entries
  IC50: 2.9 µM

## Nc1nc(-c2ccc(NC(=O)CN(Cc3ccccn3)C(=O)c3ccncc3)cc2)cs1 [Example 56]
HCMV (strain AD169) [3]; [4]
  EC50: 38 µM
HSV-1 strain F or KOS; [6]
  EC50: 0.55 µM
HSV-1 helicase-primase; Group 1 Table 1 entries
  IC50: 1.2 µM

## CCCCNC(=O)Nc1ccc(-c2csc(N)n2)cc1 [Example 2]
HCMV (strain AD169) [3]; [5]
  EC50: 0.6 µM
HSV-1 strain F or KOS; Human alphaherpesvirus 1, BHK-21, Group 2 Table 1 entries
  EC50: 3.5 µM
HCMV (strain AD169) [2]; [5]
  EC50: 12 µM

## Cc1cccc(C)c1C(=O)N(CC(=O)Nc1ccc(-c2csc(N)n2)cc1)Cc1ccccc1 [Example 25]
HCMV (strain AD169) [3]; [4]
  EC50: 4.4 µM
HSV-1 strain F or KOS; [6]
  EC50: 0.011 µM
HSV-1 helicase-primase; Group 1 Table 1 entries
  IC50: 0.047 µM

## Nc1nc(-c2ccc(NC(=O)[C@@H](Cc3ccccc3)NCc3ccccc3)cc2)cs1 [Example 7]
HCMV (strain AD169) [3]; [9]
  EC50: < 9 µM
HSV-1 strain F or KOS; [10]
  EC50: 2.1 µM
HSV-1 helicase-primase; Group 1 Table 5 entries
  IC50: 6.6 µM

## CC(C)(C)C(=O)N[C@@H](Cc1ccccc1)C(=O)Nc1ccc(-c2csc(N)n2)cc1 [Example 20]
HCMV (strain AD169) [3]; [9]
  EC50: 10 µM
HSV-1 strain F or KOS; [10]
  EC50: 0.6 µM
HSV-1 helicase-primase; Group 1 Table 5 entries
  IC50: 1.3 µM

## Nc1nc(-c2ccc(NC(=O)CCNC3CCc4ccccc43)cc2)cs1 (centres unmarked) [Example 9]
HCMV (strain AD169) [3]; [7]
  EC50: 6 µM
HSV-1 strain F or KOS; [8]
  EC50: 0.95 µM
HCMV (strain AD169) [2]; [7]
  EC50: > 10.4 µM

## CN(C)c1cccc2c(S(=O)(=O)N(CC(=O)Nc3ccc(-c4csc(N)n4)cc3)Cc3ccccc3)cccc12 [Example 98]
HCMV (strain AD169) [3]; [4]
  EC50: > 2 µM
HSV-1 strain F or KOS; [6]
  EC50: 2.1 µM
HSV-1 helicase-primase; Group 1 Table 1 entries
  IC50: 0.5 µM

— patent US6288091A, “Antiherpes virus compounds and methods for their preparation and use” (Boehringer Ingelheim Ltd., priority 1999, dated 2001)
